Experimental findings from US9540348B2, “Imidazole-1-yl pyrimidine derivatives, or pharmacutically acceptable salt thereof, and pharmaceutic composition comprising the same as an active ingredient” (Industry-University Cooperation Foundation Hanyang …, priority 2015, dated 2017) are described below.

Molecules are shown by their SMILES. Entries after “also recorded” stand apart in the source; their conditions may differ.

The subject of test [1] is A375P human melanoma cell line. Put plainly: Antiproliferative activity to A375P human melanoma cell line. To be noted: for GI50: A375P human melanoma cell line, read-out: A375P (GI50, Unit: μM); for potency against A375P, in words: A375P cell line, comparison with Sorafenib. In kind it is cell-based. The procedure:
(§1) The antiproliferative activity of the compounds of Examples to A375P human melanoma cell line and U937 human leukemic monocyte lymphoma cell line are evaluated and listed in the following Table 1.

The test system of test [2] is U937 human leukemic monocyte lymphoma cell line. As to the kind of experiment: Antiproliferative activity to U937 human leukemic monocyte lymphoma cell line. The class given is cell-based. Conditions: for GI50: U-937, U937 human leukemic monocyte lymphoma cell line, read-out: U937 (GI50, Unit: μM); for potency against U937, in words: U937 cell line, comparison with Sorafenib. How it is done:
as §1

In general, GI50 refers to the concentration that inhibits growth by half.

For `C[C@H](O)CNc1nccc(-n2ccnc2Cc2cccc(NC(=O)c3cc(N4CCN(C)CC4)cc(C(F)(F)F)c3)c2)n1` [Example 1, (S)—N-(3-((1-(2-((2-hydroxypropyl)amino)pyrimidin-4-yl)-1H-imidazol-2-yl)methyl)phenyl)-3-(4-methylpiperazin-1-yl)-5-(trifluoromethyl)benzamide], the concentration for 50% growth inhibition (GI50) in test [1] is 12.3 µM; in test [2], over 30 µM.
As for `Cc1cc(C)cc(C(=O)Nc2cccc(Cc3nccn3-c3ccnc(NC[C@H](C)O)n3)c2)c1` [Example 2, (S)—N-(3-((1-(2-((2-hydroxypropyl)amino)pyrimidin-4-yl)-1H-imidazol-2-yl)methyl)phenyl)-3,5-dimethylbenzamide], in test [2], the 50% growth inhibitory concentration (GI50) was 16.8 µM.
For `C[C@H](O)CNc1nccc(-n2ccnc2Cc2cccc(NC(=O)Cc3ccccc3F)c2)n1` [Example 4, (S)-2-(2-fluorophenyl)-N-(3-((1-(2-((2-hydroxypropyl)amino)pyrimidin-4-yl)-1H-imidazol-2-yl)methyl)phenyl)acetamide], the results for the GI50 in test [1] and in test [2] were 7.45 µM and over 30 µM, respectively.
For `C[C@H](O)CNc1nccc(-n2ccnc2Cc2cccc(NC(=O)c3cnn(-c4ccccc4)c3C(F)(F)F)c2)n1` [Example 5, (S)—N-(3-((1-(2-((2-hydroxypropyl)amino)pyrimidin-4-yl)-1H-imidazol-2-yl)methyl)phenyl)-1-phenyl-5-(trifluoromethyl)-1H-pyrazole-4-carboxamide], in that order: 6.39 µM and 25.8 µM.
For `C[C@H](O)CNc1nccc(-n2ccnc2Cc2cccc(NC(=O)c3ccc(Cl)cc3)c2)n1` [Example 6, (S)-4-chloro-N-(3-((1-(2-((2-hydroxypropyl)amino)pyrimidin-4-yl)-1H-imidazol-2-yl)methyl)phenyl)benzamide], in that order: 10.2 µM and over 30 µM.
For `C[C@H](O)CNc1nccc(-n2ccnc2Cc2cccc(NC(=O)c3ccc4[nH]nnc4c3)c2)n1` [Example 9, (S)—N-(3-((1-(2-((2-hydroxypropyl)amino)pyrimidin-4-yl)-1H-imidazol-2-yl)methyl)phenyl)-1H-benzo[d][1,2,3]triazole-5-carboxamide], in that order: over 30 µM and 18.5 µM.
`C[C@H](O)CNc1nccc(-n2ccnc2Cc2cccc(NC(=O)c3ccncc3)c2)n1` [Example 10, (S)—N-(3-((1-(2-((2-hydroxypropyl)amino)pyrimidin-4-yl)-1H-imidazol-2-yl)methyl)phenyl)isonicotinamide]: the concentration for 50% growth inhibition (GI50) in test [1] worked out at 8.92 µM.
On to `C[C@H](O)CNc1nccc(-n2ccnc2Cc2cccc(NC(=O)Cc3ccc(-c4ccccc4)cc3)c2)n1` [Example 11, (S)-2-([1,1′-biphenyl]-4-yl)-N-(3-((1-(2-((2-hydroxypropyl)amino)pyrimidin-4-yl)-1H-imidazol-2-yl)methyl)phenyl)acetamide], for which the 50% growth inhibitory concentration (GI50) in test [1] stood at 11.2 µM; in test [2], 10 µM.
Take `C[C@H](O)CNc1nccc(-n2ccnc2Cc2cccc(NC(=O)c3ccc(-c4ccccc4)cc3)c2)n1` [Example 12, (S)—N-(3-((1-(2-((2-hydroxypropyl)amino)pyrimidin-4-yl)-1H-imidazol-2-yl)methyl)phenyl)-[1,1′-biphenyl]-4-carboxamide]: in test [1], the “potency against A375P, in words” value is on record as “large potencies; also recorded: better potencies than Sorafenib” and the concentration for 50% growth inhibition (GI50) was found to be 0.6 µM. For the same molecule, in test [2], the “potency against U937, in words” value was “large potencies; also recorded: better potencies than Sorafenib” and the GI50 was 1.68 µM.
On to `C[C@H](O)CNc1nccc(-n2ccnc2Cc2cccc(NC(=O)c3ccccc3Sc3ccccc3C#N)c2)n1` [Example 15, (S)-2-((2-cyanophenyl)thio)-N-(3-((1-(2-((2-hydroxypropyl)amino)pyrimidin-4-yl)-1H-imidazol-2-yl)methyl)phenyl)benzamide], for which, in test [2], the concentration for 50% growth inhibition (GI50) worked out at 10 µM.
On to `Cc1c(C)c2c(c(C)c1O)CC[C@](C)(C(=O)Nc1cccc(Cc3nccn3-c3ccnc(NC[C@H](C)O)n3)c1)O2` [Example 16, (R)-6-hydroxy-N-(3-((1-(2-(((S)-2-hydroxypropyl)amino)pyrimidin-4-yl)-1H-imidazol-2-yl)methyl)phenyl)-2,5,7,8-tetramethylchromane-2-carboxamide], for which the GI50 in test [2] was 23.6 µM.
As to `C[C@H](O)CNc1nccc(-n2ccnc2Cc2cccc(NC(=O)C(c3ccc(Cl)cc3)c3ccc(Cl)cc3)c2)n1` [Example 17, (S)-2,2-bis(4-chlorophenyl)-N-(3-((1-(2-(2-hydroxypropylamino)pyrimidin-4-yl)-1H-imidazol-2-yl)methyl)phenyl)acetamide], the GI50 in test [1] was 3.97 µM; in test [2], 3.24 µM.
With `C[C@H](O)CNc1nccc(-n2ccnc2Cc2cccc(NC(=O)c3ccc(Cl)c(C(F)(F)F)c3)c2)n1` [Example 19, (S)-4-chloro-N-(3-((1-(2-((2-hydroxypropyl)amino)pyrimidin-4-yl)-1H-imidazol-2-yl)methyl)phenyl)-3-(trifluoromethyl)benzamide], in test [1], the “potency against A375P, in words” value was “large potencies” and the 50% growth inhibitory concentration (GI50) stood at 3.3 µM. In addition, in test [2], the “potency against U937, in words” value is reported as “large potencies” and the GI50 is 6.83 µM.
With `C[C@H](O)CNc1nccc(-n2ccnc2Cc2cccc(NC(=O)c3cc(N4CCOCC4)cc(C(F)(F)F)c3)c2)n1` [Example 20, (S)—N-(3-((1-(2-((2-hydroxypropyl)amino)pyrimidin-4-yl)-1H-imidazol-2-yl)methyl)phenyl)-3-morpholino-5-(trifluoromethyl)benzamide], the GI50 in test [1] came to 6.6 µM; in test [2], 9.7 µM.
Regarding `C[C@H](O)CNc1nccc(-n2ccnc2Cc2cccc(NC(=O)Nc3cccc(Cl)c3)c2)n1` [Example 21, (S)-1-(3-chlorophenyl)-3-(3-((1-(2-((2-hydroxypropyl)amino)pyrimidin-4-yl)-1H-imidazol-2-yl)methyl)phenyl)urea], the 50% growth inhibitory concentration (GI50) turned out to be 19.2 µM in test [1] and 1.73 µM in test [2].
The matching figures for `C[C@H](O)CNc1nccc(-n2ccnc2Cc2cccc(NC(=O)Nc3ccc(Cl)c(Cl)c3)c2)n1` [Example 22, (S)-1-(3,4-dichlorophenyl)-3-(3-((1-(2-((2-hydroxypropyl)amino)pyrimidin-4-yl)-1H-imidazol-2-yl)methyl)phenyl)urea]: 26.2 µM and 15.3 µM.
Take `C[C@H](O)CNc1nccc(-n2ccnc2C(=O)c2cccc(NC(=O)c3cccc(C(F)(F)F)c3)c2)n1` [Example 25, (S)—N-(3-(1-(2-((2-hydroxypropyl)amino)pyrimidin-4-yl)-1H-imidazole-2-carbonyl)phenyl)-3-(trifluoromethyl)benzamide]: the values for the GI50 in test [1] and in test [2] were over 30 µM and 3.78 µM, respectively.
Consider `COc1ccc(-c2ccc(C(=O)Nc3cccc(C(=O)c4nccn4-c4ccnc(NC[C@H](C)O)n4)c3)o2)cc1` [Example 26, (S)—N-(3-(1-(2-((2-hydroxypropyl)amino)pyrimidin-4-yl)-1H-imidazole-2-carbonyl)phenyl)-5-(4-methoxyphenyl)furan-2-carboxamide], for which the GI50 in test [1] came out at 9.39 µM; in test [2] it was 2.55 µM.
`C[C@H](O)CNc1nccc(-n2ccnc2C(=O)c2cccc(NC(=O)c3cc(N4CCOCC4)cc(C(F)(F)F)c3)c2)n1` [Example 27, (S)—N-(3-(1-(2-((2-hydroxypropyl)amino)pyrimidin-4-yl)-1H-imidazole-2-carbonyl)phenyl)-3-morpholino-5-(trifluoromethyl)benzamide]: in test [2], the GI50 is 4.9 µM.
Consider `C[C@H](O)CNc1nccc(-n2ccnc2C(=O)c2cccc(NC(=O)c3cc(N4CCN(C)CC4)cc(C(F)(F)F)c3)c2)n1` [Example 28, (S)—N-(3-(1-(2-((2-hydroxypropyl)amino)pyrimidin-4-yl)-1H-imidazole-2-carbonyl)phenyl)-3-(4-methylpiperazin-1-yl)-5-(trifluoromethyl)benzamide], for which the 50% growth inhibitory concentration (GI50) in test [1] was 27.8 µM.
Regarding `C[C@H](O)CNc1nccc(-n2ccnc2C(=O)c2ccc(NC(=O)c3ccc(Cl)cc3)cc2)n1` [Example 33, (S)-4-chloro-N-(4-(1-(2-((2-hydroxypropyl)amino)pyrimidin-4-yl)-1H-imidazole-2-carbonyl)phenyl)benzamide], in test [1], the GI50 worked out at 7.07 µM.
As for `C[C@H](O)CNc1nccc(-n2ccnc2C(=O)c2ccc(NC(=O)c3cccc(Cl)c3)cc2)n1` [Example 34, (S)-3-chloro-N-(4-(1-(2-((2-hydroxypropyl)amino)pyrimidin-4-yl)-1H-imidazole-2-carbonyl)phenyl)benzamide], the 50% growth inhibitory concentration (GI50) in test [1] worked out at 5.92 µM.
Turning to `C[C@H](O)CNc1nccc(-n2ccnc2C(=O)c2ccc(NC(=O)c3cc(N4CCN(C)CC4)cc(C(F)(F)F)c3)cc2)n1` [Example 36, (S)—N-(4-(1-(2-((2-hydroxypropyl)amino)pyrimidin-4-yl)-1H-imidazole-2-carbonyl)phenyl)-3-(4-methylpiperazin-1-yl)-5-(trifluoromethyl)benzamide], the results for the GI50 in test [1] and in test [2] were over 30 µM and 14.7 µM, respectively.
The matching figures for `C[C@H](O)CNc1nccc(-n2ccnc2C(=O)c2ccc(NC(=O)Nc3ccc(Cl)c(C(F)(F)F)c3)cc2)n1` [Example 38, (S)-1-(4-chloro-3-(trifluoromethyl)phenyl)-3-(4-(1-(2-((2-hydroxypropyl)amino)pyrimidin-4-yl)-1H-imidazole-2-carbonyl)phenyl)urea]: over 30 µM and 7.45 µM.
For `C[C@H](O)CNc1nccc(-n2ccnc2C(=O)c2ccc(NC(=O)Nc3ccc(Cl)c(Cl)c3)cc2)n1` [Example 39, (S)-1-(3,4-dichlorophenyl)-3-(4-(1-(2-((2-hydroxypropyl)amino)pyrimidin-4-yl)-1H-imidazole-2-carbonyl)phenyl)urea], in that order: over 30 µM and 11.6 µM.
Consider `CNC(=O)c1cc(Oc2ccc(NC(=O)Nc3ccc(Cl)c(C(F)(F)F)c3)cc2)ccn1` [Sorafenib, reference compound], for which the 50% growth inhibitory concentration (GI50) in test [1] is 3.4 µM; in test [2] it was 2.74 µM.
